“And” between values parts separate entries of the source, which are not always exact repeats. Equal values may be shown once. Read-outs that look alike come from different tables or passages of the source.
Legend:
[1] = Experimentally determined pKa
σ1R [2] = target: T1, σ1R (Homo sapiens, UniProt Q99720); format: binding; details: for displacement kinetics of [3H]-(+)-pentazocine: membrane preparation and whole cells, 15 min of incubation
σ1R homomer = σ1R homomer (Homo sapiens, UniProt Q99720); experiment: Drug induced σ1R homomer BRET; format: cell-based; details: for effect on σ1R homomer BRET signaling: 2.5-60 min
σ1R [3] = target: σ1R (Cavia porcellus, UniProt Q60492); experiment: σ1R radioligand binding in guinea pig cortex with [3H]-
σ1R [4] = target: T1, σ1R; format: binding; details: HEK 293T membrane; for Ki: read-out: Ki ± SEM, competition vs. 3 nM [3H]-(+)-pentazocine
σ1R [5] = target: T1, σ1R; format: binding; details: read-out: Ki ± SEM; competition vs. 2 nM [3H]-haloperidol, HEK 293T membrane
[6] = 1 μM haloperidol or 1 μM PD144418 added prior to tested ligand
[7] = single-ligand mode, σ1-NL:σ1-VN
[8] = read-out: Ki ± SEM, competition vs. 3 nM [3H]-(+)-pentazocine, guinea pig cortex

T1 sequence (Q99720 whole entry): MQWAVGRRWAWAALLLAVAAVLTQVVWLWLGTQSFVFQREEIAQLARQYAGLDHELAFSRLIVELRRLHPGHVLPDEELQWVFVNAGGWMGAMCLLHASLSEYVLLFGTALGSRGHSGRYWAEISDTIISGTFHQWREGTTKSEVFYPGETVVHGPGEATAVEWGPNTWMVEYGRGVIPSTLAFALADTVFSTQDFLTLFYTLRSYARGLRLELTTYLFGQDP
Chain of σ1R homomer (Q99720 whole entry): as above
Chain of σ1R homomer (Q99720 whole entry): as above
Chain of σ1R (Cavia porcellus, UniProt Q60492) (Q60492 whole entry): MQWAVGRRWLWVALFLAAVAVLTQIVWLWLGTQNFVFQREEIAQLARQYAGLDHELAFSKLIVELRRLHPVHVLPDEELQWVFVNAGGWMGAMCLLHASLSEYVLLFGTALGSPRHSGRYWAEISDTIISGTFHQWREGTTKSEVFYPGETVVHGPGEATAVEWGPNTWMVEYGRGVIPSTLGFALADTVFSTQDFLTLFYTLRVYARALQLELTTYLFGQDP

CC(C)=CCN1CC[C@]2(C)c3cc(O)ccc3C[C@H]1[C@H]2C [(+)-pentazocine]
pKa [1]: 9.2 to 9.3

CCCN(CCC)CCc1ccc(OC)c(OCCc2ccccc2)c1 [NE-100]
displacement kinetics of [3H]-(+)-pentazocine (σ1R [2]): immediate displacement | effect on σ1R homomer BRET in competition mode (σ1R homomer; [6]): dose-dependent effects | effect on σ1R homomer BRET signaling (σ1R homomer; [7]): no detectable effects on BRET signaling | Ki (σ1R [3]; [8]): 1.14 ± 0.283 nM

CC(C)=CCN1CC[C@]2(C)c3cc(O)ccc3C[C@H]1[C@H]2C [[^3H]-(+)-pentazocine]
Bmax ± SEM (σ1R [4]; [3H]-(+)-pentazocine): 2080 fmol/mg and 2080 ± 163 fmol/mg

O=C(OCCN1CCOCC1)C1(c2ccccc2)CCCCC1 [PRE-084, 2-(4-morpholinethyl)1 phenylcyclohexanecarboxylate]
displacement of [3H]-(+)-pentazocine (σ1R [2]; membrane preparation, 15 and 120 min): 92.4–96.1% | displacement of [3H]-(+)-pentazocine (σ1R [2]; whole cell assay, 15 min): 60.6% | displacement of [3H]-(+)-pentazocine (σ1R [2]; whole cell assay, 120 min): below 76.1% | effect on σ1R homomer BRET in competition mode (σ1R homomer; [6]): dose-dependent effects | effect on σ1R homomer BRET signaling (σ1R homomer; [7]): no detectable effects on BRET signaling | experimentally determined pKa [1]: 6.2

c1ccc(CCCCN2CCC(c3ccccc3)CC2)cc1 [4-PPBP]
effect on σ1R homomer BRET in competition mode (σ1R homomer; in the presence of 1 μM PD144418): positive BRET signals were induced | effect on σ1R homomer BRET signaling (σ1R homomer; [7]): positive dose-dependent induction of BRET signaling | Ki (σ1R [3]; [8]): 0.857 ± 0.153 nM

CCCN1CCC=C(c2cc(-c3ccc(C)cc3)no2)C1 [PD144418]
Emax (basal subtracted BRET change) (σ1R homomer; [7]): ~0.02 | effect on σ1R homomer BRET signaling (σ1R homomer; [7]): positive dose-dependent induction of BRET signaling | Ki (σ1R [3]; [8]): 0.842 ± 0.307 nM | Ki (σ1R [5]): 2.67 ± 0.578 nM | Ki (σ1R [4]): 0.894 ± 0.11 nM

COC(=O)[C@H]1[C@@H](OC(=O)c2ccccc2)C[C@@H]2CC[C@H]1N2C [cocaine]
effect on σ1R homomer BRET in competition mode (σ1R homomer; [6]): dose-dependent effects | effect on σ1R homomer BRET signaling (σ1R homomer; [7]): no detectable effects on BRET signaling | Ki (σ1R [3]): 3710 ± 1170 nM

CCCCN1[C@@H]2CC[C@H]1CC(OC(c1ccc(F)cc1)c1ccc(F)cc1)C2 (some centres unmarked) [JHW007]
displacement kinetics of [3H]-(+)-pentazocine (σ1R [2]): immediate displacement | effect on σ1R homomer BRET in competition mode (σ1R homomer; [6]): dose-dependent effects | effect on σ1R homomer BRET signaling (σ1R homomer; [7]): no detectable effects on BRET signaling | Ki (σ1R [3]; [8]): 1.48 ± 0.289 nM | Ki (σ1R [5]): 1.85 ± 0.0579 nM | Ki (σ1R [4]): 0.554 ± 0.172 nM

— paper PMC5858991 (Neuropharmacology, 2018)
